Measurements taken from patent US6461997B1, “Triazole sulfones having herbicidal activity” (Monsanto Technology LLC, priority 1999, dated 2002).

Legend:
POROL (common purslane) = assay: Pre-emergence herbicidal activity, warm season; format: in vivo, Portulaca oleracea; details: GR80 = lowest tested rate (300, 100, 30, 10 g/ha) with 80% or greater inhibition; approx. 14 days after treating; 30/21° C.
Description: (§1) Tables 5 to 8 summarize results of tests conducted as described below to determine the pre-emergence herbicidal activity, in the form of a GR80 value, of illustrative compounds of this invention. […] Compounds of the invention were typically applied at rates of 300, 100, 30, and 10 g/ha. Where herbicidal activity was evident but 80% inhibition was not achieved at the highest rate tested, an asterisk (*) is shown in the following tables.
(§2) The pre-emergence tests were conducted by the following procedure. Topsoil was sieved to pass through a 1.27 cm screen. Fertilizer was added to the topsoil and the mixture was then sterilized by heating. The topsoil mixture was placed in a pot and compacted to a depth of 1.0 to 1.25 cm from the top of the pot. Seeds of each of several monocotyledonous and dicotyledonous annual plant species were placed on top of the soil. Additional soil was subsequently placed over the seeds to level-fill the pot. A known amount of each test compound dissolved or suspended in an appropriate organic solvent was diluted with a 50:50 mix of acetone and water and applied to the surface of the soil. After treatment the plants were placed in a greenhouse where they received 0.64 cm of overhead irrigation. All subsequent watering consisted of a light overhead mist and/or subirrigation as needed for germination and growth. Tables 5 and 6 below relate to warm season plant species which were placed after pre-emergence treatment in a greenhouse with a 30/21° C. day/night temperature regime. Tables 7 and 8 below relates to cool season plant species placed after pre-emergence treatment in a greenhouse or growth chamber with an 18/13° C. day/night temperature regime.
(§3) Approximately 14 days after planting and treating, the plants were observed and herbicidal efficacy recorded as percent inhibition by comparison with untreated plants.
(§4) The plant species usually regarded as weeds which were utilized in the tests are identified in the tables below according to the following legend, in which “d” indicates a dicotyledonous species and “m” a monocotyledonous species. All monocotyledonous species included in the tests herein are grasses.

ECHCG (barnyardgrass) = assay: Pre-emergence herbicidal activity, warm season; format: in vivo, Echinochloa crus-galli; details: GR80 = lowest tested rate (300, 100, 30, 10 g/ha) with 80% or greater inhibition; approx. 14 days after treating; 30/21° C.
Description: as §1, §2, §3, §4

[1] = test system: PANMI (wild proso millet); assay: Pre-emergence herbicidal activity, warm season; format: in vivo, Panicum miliaceum; details: GR80 = lowest tested rate (300, 100, 30, 10 g/ha) with 80% or greater inhibition; approx. 14 days after treating; 30/21° C.
Description: as §1, §2, §3, §4

[2] = test system: SORHA (johnsongrass (seedling)); assay: Pre-emergence herbicidal activity, warm season; format: in vivo, Sorghum halepense; details: GR80 = lowest tested rate (300, 100, 30, 10 g/ha) with 80% or greater inhibition; approx. 14 days after treating; 30/21° C.
Description: as §1, §2, §3, §4

DIGSA (large crabgrass) = assay: Pre-emergence herbicidal activity, warm season; format: in vivo, Digitaria sanguinalis; details: GR80 = lowest tested rate (300, 100, 30, 10 g/ha) with 80% or greater inhibition; approx. 14 days after treating; 30/21° C.
Description: as §1, §2, §3, §4

[3] = test system: GALAP (catchweed bedstraw); assay: Pre-emergence herbicidal activity, cool season; format: in vivo, Galium aparine; details: lowest tested rate with 80% or greater inhibition; rates 300, 100, 30, 10 g/ha; about 14 days
Description: as §1, §2, §3, §4

POLCO (wild buckwheat) = assay: Pre-emergence herbicidal activity, cool season; format: in vivo, Polygonum convolvulus; details: lowest tested rate with 80% or greater inhibition; rates 300, 100, 30, 10 g/ha; about 14 days
Description: as §1, §2, §3, §4

SINAR (wild mustard) = assay: Pre-emergence herbicidal activity, cool season; format: in vivo, Sinapis arvensis; details: lowest tested rate with 80% or greater inhibition; rates 300, 100, 30, 10 g/ha; about 14 days
Description: as §1, §2, §3, §4

[4] = test system: VERPE (creeping speedwell); assay: Pre-emergence herbicidal activity, cool season; format: in vivo, Veronica persicaria; details: lowest tested rate with 80% or greater inhibition; rates 300, 100, 30, 10 g/ha; about 14 days
Description: as §1, §2, §3, §4

SASKR (russian thistle) = assay: Pre-emergence herbicidal activity, cool season; format: in vivo, Salsola kali; details: lowest tested rate with 80% or greater inhibition; rates 300, 100, 30, 10 g/ha; about 14 days
Description: as §1, §2, §3, §4

STEME (common chickweed) = assay: Pre-emergence herbicidal activity, cool season; format: in vivo, Stellaria media; details: lowest tested rate with 80% or greater inhibition; rates 300, 100, 30, 10 g/ha; about 14 days
Description: as §1, §2, §3, §4

[5] = test system: LAMPU (purple deadnettle); assay: Pre-emergence herbicidal activity, cool season; format: in vivo, Lamium purpureum; details: lowest tested rate with 80% or greater inhibition; rates 300, 100, 30, 10 g/ha; about 14 days
Description: as §1, §2, §3, §4

[6] = test system: AGSST (creeping bentgrass); assay: Pre-emergence herbicidal activity, cool season; format: in vivo, Agrostis stolonifera; details: GR80 = lowest tested rate (300, 100, 30, 10 g/ha) with 80% or greater inhibition; approx. 14 days after treating; 18/13° C.
Description: as §1, §2, §3, §4

SOLNI (black nightshade) = assay: Pre-emergence herbicidal activity, warm season; format: in vivo, Solanum nigrum; details: GR80 = lowest tested rate (300, 100, 30, 10 g/ha) with 80% or greater inhibition; approx. 14 days after treating; 30/21° C.
Description: as §1, §2, §3, §4

AMARE (redroot pigweed) = assay: Pre-emergence herbicidal activity, warm season; format: in vivo, Amaranthus retroflexus; details: GR80 = lowest tested rate (300, 100, 30, 10 g/ha) with 80% or greater inhibition; approx. 14 days after treating; 30/21° C.
Description: as §1, §2, §3, §4

[7] = test system: CHEAL (common lambsquarters); assay: Pre-emergence herbicidal activity, warm season; format: in vivo, Chenopodium album; details: GR80 = lowest tested rate (300, 100, 30, 10 g/ha) with 80% or greater inhibition; approx. 14 days after treating; 30/21° C.
Description: as §1, §2, §3, §4

[8] = test system: CIRAR (canada thistle (seedling)); assay: Pre-emergence herbicidal activity, warm season; format: in vivo, Cirsium arvense; details: GR80 = lowest tested rate (300, 100, 30, 10 g/ha) with 80% or greater inhibition; approx. 14 days after treating; 30/21° C.
Description: as §1, §2, §3, §4

SETFA (giant foxtail) = assay: Pre-emergence herbicidal activity, warm season; format: in vivo, Setaria faberi; details: GR80 = lowest tested rate (300, 100, 30, 10 g/ha) with 80% or greater inhibition; approx. 14 days after treating; 30/21° C.
Description: as §1, §2, §3, §4

[9] = test system: BRAPP (broadleaf signalgrass); assay: Pre-emergence herbicidal activity, warm season; format: in vivo, Brachiaria platyphylla; details: GR80 = lowest tested rate (300, 100, 30, 10 g/ha) with 80% or greater inhibition; approx. 14 days after treating; 30/21° C.
Description: as §1, §2, §3, §4

ALOMY (blackgrass) = assay: Pre-emergence herbicidal activity, cool season; format: in vivo, Alopecurus myosuroides; details: GR80 = lowest tested rate (300, 100, 30, 10 g/ha) with 80% or greater inhibition; approx. 14 days after treating; 18/13° C.
Description: as §1, §2, §3, §4

SETVI (green foxtail) = assay: Pre-emergence herbicidal activity, cool season; format: in vivo, Setaria viridis; details: GR80 = lowest tested rate (300, 100, 30, 10 g/ha) with 80% or greater inhibition; approx. 14 days after treating; 18/13° C.
Description: as §1, §2, §3, §4

| Compound | Pre-emergence activity (GR80) POROL (POROL (common purslane)) [g/ha] | Pre-emergence activity (GR80) ECHCG (ECHCG (barnyardgrass)) [g/ha] | Pre-emergence activity (GR80) PANMI [1] [g/ha] | Pre-emergence activity (GR80) SORHA [2] [g/ha] | Pre-emergence activity (GR80) DIGSA (DIGSA (large crabgrass)) [g/ha] | Pre-emergence activity GR80, GALAP [3] | Pre-emergence activity GR80, POLCO (POLCO (wild buckwheat)) | Pre-emergence activity GR80, SINAR (SINAR (wild mustard)) | Pre-emergence activity GR80, VERPE [4] | Pre-emergence activity GR80, SASKR (SASKR (russian thistle)) | Pre-emergence activity GR80, STEME (STEME (common chickweed)) | Pre-emergence activity GR80, LAMPU [5] | Pre-emergence activity (GR80) AGSST [6] [g/ha] | Pre-emergence activity (GR80) CHEAL [7] [g/ha] | Pre-emergence activity (GR80) SETFA (SETFA (giant foxtail)) [g/ha] | Pre-emergence activity (GR80) BRAPP [9] [g/ha] | Pre-emergence activity (GR80) SETVI (SETVI (green foxtail)) [g/ha] | other results |
| --- | --- | --- | --- | --- | --- | --- | --- | --- | --- | --- | --- | --- | --- | --- | --- | --- | --- | --- |
| CN(C)C(=O)n1cnc(S(=O)(=O)C(F)(F)Br)n1 [Example 37] | 300 | 300 | 300 | 300 | 300 | [empty] | [empty] | [empty] | [empty] | [empty] | 300 g/ha | 300 g/ha | 100 | – | – | – | – | – |
| O=C(N1CCCC1)n1cnc(S(=O)(=O)C(F)(F)C(F)F)n1 [Example 59] | – | 300 | 100 | 100 | 30 | 100 g/ha | 300 g/ha | [empty] | [empty] | [empty] | 300 g/ha | 100 g/ha | 300 | 100 | 300 | 100 | 300 | Pre-emergence activity (GR80) SOLNI (SOLNI (black nightshade)): 300 g/ha; Pre-emergence activity (GR80) AMARE (AMARE (redroot pigweed)): 100 g/ha; Pre-emergence activity (GR80) CIRAR [8]: 300 g/ha; Pre-emergence activity (GR80) ALOMY (ALOMY (blackgrass)): 300 g/ha |
| COCCN(C)C(=O)n1cnc(S(=O)(=O)C(F)(F)C(F)F)n1 [Example 64] | 300 | – | 100 | – | 300 | 300 g/ha | 100 g/ha | 100 g/ha | 30 g/ha | 10 g/ha | 100 g/ha | 300 g/ha | 100 | – | 300 | 300 | 100 | Pre-emergence activity (GR80) ALOMY (ALOMY (blackgrass)): 300 g/ha |
| CN(C(=O)n1cnc(S(=O)(=O)C(F)(F)C(F)F)n1)C1CCCCC1 [Example 67] | 300 | 300 | 100 | 300 | – | 300 g/ha | 300 g/ha | [empty] | 100 g/ha | [empty] | [empty] | [empty] | 100 | 100 | 300 | – | 300 | Pre-emergence activity (GR80) AMARE (AMARE (redroot pigweed)): 300 g/ha |
| CCN(CC)C(=S)n1cnc(S(=O)(=O)C(F)(F)C(F)F)n1 [Example 70] | 300 | – | 300 | – | 300 | [empty] | 300 g/ha | 300 g/ha | [empty] | 300 g/ha | [empty] | [empty] | 300 | 300 | 300 | – | 300 | Pre-emergence activity (GR80) SOLNI (SOLNI (black nightshade)): 300 g/ha; Pre-emergence activity (GR80) CIRAR [8]: 300 g/ha |
| CCN(CC)C(=S)n1cnc(S(=O)(=O)C(F)(F)C(F)(F)Br)n1 [Example 82] | 30 | – | 300 | 300 | – | [empty] | 300 g/ha | 300 g/ha | 300 g/ha | [empty] | 300 g/ha | 300 g/ha | 300 | 300 | 300 | 300 | 100 | – |
| C=CCN(C)C(=O)n1cnc(S(=O)(=O)C(F)(F)Cl)n1 [Example 89] | 100 | – | 300 | – | 100 | 300 g/ha | 100 g/ha | 300 g/ha | [empty] | 300 g/ha | 100 g/ha | 100 g/ha | 100 | – | – | – | 100 | – |
